Source: paper PMC6652808, “The Inhibitory Effect of GlmU Acetyltransferase Inhibitor TPSA on Mycobacterium tuberculosis May Be Affected Due to Its Methylation by Methyltransferase Rv0560c” (Frontiers in Cellular and Infection Microbiology, 2019)
Like-named read-outs stand apart in the source and are kept apart here.

Key:
Assay in all cases: biochemical
[1] = molecular target: T1, GlmU (Mycobacterium tuberculosis, UniProt P9WMN3); design: DTNB colorimetric assay of GlmU acetyltransferase activity, absorbance at 405 nm
[2] = molecular target: T1, GlmU; design: Inhibition constants from double reciprocal plots, DTNB acetyltransferase assay with varied substrate
[3] = molecular target: T1, GlmU; design: Inhibition constants from double reciprocal plots, DTNB acetyltransferase assay with varied substrate; remark: listed apart in the source
[4] = molecular target: T1, GlmU; design: Inhibition constants from double reciprocal plots, DTNB acetyltransferase assay with varied substrate; remark: listed apart in the source

T1 sequence (P9WMN3 2-495): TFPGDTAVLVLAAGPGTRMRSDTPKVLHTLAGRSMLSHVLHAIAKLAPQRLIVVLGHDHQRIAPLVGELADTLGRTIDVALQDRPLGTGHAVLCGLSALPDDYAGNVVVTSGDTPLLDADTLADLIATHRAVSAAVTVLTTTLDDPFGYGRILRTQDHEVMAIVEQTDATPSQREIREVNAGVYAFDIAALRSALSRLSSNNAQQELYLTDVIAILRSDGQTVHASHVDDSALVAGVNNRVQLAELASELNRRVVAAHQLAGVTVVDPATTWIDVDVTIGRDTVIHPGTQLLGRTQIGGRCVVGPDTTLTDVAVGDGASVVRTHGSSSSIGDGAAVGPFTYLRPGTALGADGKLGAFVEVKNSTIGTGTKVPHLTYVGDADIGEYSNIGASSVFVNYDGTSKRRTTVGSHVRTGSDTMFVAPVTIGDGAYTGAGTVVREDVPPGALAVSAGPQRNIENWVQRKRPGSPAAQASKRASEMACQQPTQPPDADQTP

O=C1C=CC(=O)N1c1cccc(N2C(=O)C=CC2=O)c1 [DHPP, 1-[3-(2,5-dioxo-2,5-dihydro-1H-pyrrol-1-yl)phenyl]-2,5-dihydro-1H-pyrrole-2,5-dione]
IC50 [1]: 10.3 µM | Ki [2]: 26.3 µM | Ki [3]: 26.4 µM

O=C1NC(=S)SC1=Cc1ccc(OCc2ccc([N+](=O)[O-])cc2)cc1 [NBTT, 5-{4-[(4-nitrobenzyl)oxy]benzylidene}-2-thioxo-1,3-thiazolan-4-one]
IC50 [1]: 65.1 µM | Ki [2]: 41.3 µM | Ki [3]: 40.2 µM

O=C1CC(=O)c2c1cccc2[N+](=O)[O-] [NID, 4-nitroindane-1,3-dione]
IC50 [1]: 124 µM

Cc1ccc(C)n1-c1ccsc1C(=O)O [MPTC, 3-(2,5-dimethyl-1H-pyrrol-1-yl)thiophene-2-carboxylic acid]
IC50 [1]: 159 µM

O=c1oc2ccccc2c2c1Sc1ccccc1N2 [BCTZ, 6,12-dihydrobenzo[b]chromeno[4,3-e][1,4]thiazin-6-one]
IC50 [1]: 61.7 µM | Ki [2]: 82.8 µM | Ki [4]: 81.6 µM
